We go through four substances from patent US7803930B2, “Antisense modulation of apolipoprotein B-expression” (Isis Pharmaceuticals, Inc., priority 2002, dated 2010).

Data set [1] has as its system human apolipoprotein B protein. The data set can be described thus: Transgenic mice (Example 47): serum human apolipoprotein B protein by ELISA. The class given is in vivo, human transgene in mouse. Conditions: 25 mg/kg, relative to saline-treated animals. Here is the method: Serum samples were also collected at 2, 4, 6 and 8 weeks and were evaluated for human apolipoprotein B expression by using a human apolipoprotein B specific ELISA kit (ALerCHEK Inc., Portland, Me.). […] Treatment with ISIS 301012 reduced serum human apolipoprotein B protein by 70, 87, 81 and 41% at 2, 4, 6 and 8 weeks, respectively, relative to saline-treated control animals. Serum from transgenic mice was also subjected to immunoblot analysis using both human and mouse specific apolipoprotein B antibodies (US Biologicals, Swampscott, Mass. and Santa Cruz Biotechnology, Inc., Santa Cruz, Calif., respectively).

For the next data set, the system named is apolipoprotein B mRNA. The data set can be described thus: LDLr(-/-) mice dose response (Example 44): apolipoprotein B mRNA. Conditions: six weeks. The data set is classed as in vivo, mouse. How it is done: LDLr(−/−) mice, purchased from Taconic (Germantown, N.Y.) were used to evaluate antisense oligonucleotides for their potential to lower apolipoprotein B mRNA or protein levels, as well as phenotypic endpoints associated with apolipoprotein B. LDLr(−/−) mice were separated into groups of males and females. LDLr(−/−) mice were dosed intraperitoneally twice a week for six weeks with either 10, 25, or 50 mg/kg of ISIS 147764 (SEQ ID NO: 109) or ISIS 270906 (SEQ ID NO: 856) which is a 4 base mismatch of ISIS 147764, or with saline, or 20 mg/kg of Atorvastatin. At study termination animals were sacrificed and evaluated for several phenotypic markers.

Data set [2] deals with mouse apolipoprotein B protein. The data set can be described thus: High fat fed mice (Example 51): serum apolipoprotein B protein, immunoblot. The note with it: high fat fed C57Bl/6 mice; 50 mg/kg i.p. twice weekly. The data set is classed as in vivo. The text has this: Furthermore, at 1, 2, 3 and 4 weeks of treatment, a inverse correlation between inhibition of target mRNA and cholesterol levels (total, HDL and LDL) is observed, with cholesterol levels lowering as percent inhibition of apolipoprotein B mRNA becomes greater. Serum samples were subjected to immunoblot analysis using an antibody to detect mouse apolipoprotein B protein (Gladstone Institute, San Francisco, Calif.).
(In general: In western blotting, separated proteins are transferred to a membrane and probed.)

A short description of data set [3]: Transgenic mice dosing study (Example 52): serum total, LDL- and HDL-cholesterol. The data set is classed as in vivo, mouse. How it is done: A long-term study of inhibition of human apolipoprotein B by ISIS 301012 in C57BL/6NTac-TgN(APOB100) mice (Taconic, Germantown, N.Y.) was conducted for a 3 month period. Mice were dosed intraperitoneally twice a week with 10 or 25 mg/kg ISIS 301012 (SEQ ID No: 247) for 12 weeks. Saline-injected animals served as controls. Each treatment group comprised 4 animals.
Results are presented as mg/dL in serum and represent the average of 4 animals. Results from the saline control animals are also shown.

Data set [4] can be described thus: Steatosis following long-term treatment (6, 12 and 20 weeks) in high-fat fed mice: histology and liver triglyceride content. The data set is classed as in vivo, mouse. The note with it: high fat fed C57Bl/6 mice, 25 mg/kg i.p. twice weekly. Here is the method:
Quantitation of liver triglyceride content is also used to assess steatosis. Tissue triglyceride levels are measured using a Triglyceride GPO Assay (Sigma-Aldrich, St. Louis, Mo.).
Male C57Bl/6 mice were treated with twice weekly intraperitoneal injections of 25 mg/kg ISIS 147764 (SEQ ID NO: 109) or 25 mg/kg ISIS 141923 (SEQ ID NO: 858) for 6, 12 and 20 weeks. Saline treated animals served as controls. Each treatment group contained 4 animals. Animals were sacrificed at 6, 12 and 20 weeks and liver tissue was procured for histological analysis and measurement of tissue triglyeride content.

A short description of data set [5]: High fat fed mice (Example 51): intact oligonucleotide in liver tissue by capillary gel electrophoresis. The class given is in vivo, mouse. Conditions: 50 mg/kg i.p. twice weekly. Here is the method:
In a further embodiment of the invention, the inhibition of apolipoprotein B mRNA in mice was compared to liver oligonucleotide concentration, total cholesterol, LDL-cholesterol and HDL-cholesterol. Male C57Bl/6 mice receiving a high fat diet (60% fat) were evaluated over the course of 6 weeks for the effects of treatment with twice weekly intraperitoneal injections of 50 mg/kg ISIS 147764 (SEQ ID NO: 109) or 50 mg/kg of the control oligonucleotide ISIS 141923 (SEQ ID NO: 858). Control animals received saline treatment. Animals were sacrificed after 2 days, 1, 2, 4 and 6 weeks of treatment. Each treatment group at each time point consisted of 8 mice.
Target expression in liver was measured by real-time PCR as described by other examples herein and is expressed as percent inhibition relative to saline treated mice. Total, LDL- and HDL-cholesterol levels were measured by routine clinical analysis using an Olympus Clinical Analyzer (Olympus America Inc., Melville, N.Y.) and are presented in mg/dL. Results from saline-treated animals are shown for comparison. Intact oligonucleotide in liver tissue was measured by capillary gel electrophoresis and is presented as micrograms of oligonucleotide per gram of tissue.
The oligonucleotide treatments described in this example were duplicated to investigate the extent to which effects of ISIS 147764 persist following cessation of treatment. Mice were treated as described, and sacrificed 1, 2, 4, 6 and 8 weeks following the cessation of oligonucleotide treatment.

Where [6] appears, read: serum, 10 mg/kg i.p. twice a week, 2 weeks.
The mark [7] stands for this setting: serum, 10 mg/kg i.p. twice a week, 4 weeks.
The mark [8] stands for this setting: serum, 10 mg/kg i.p. twice a week, 6 weeks.
The mark [9] stands for this setting: serum, 10 mg/kg i.p. twice a week, 8 weeks.
The mark [10] stands for this setting: serum, 10 mg/kg i.p. twice a week, Start.
[11] abbreviates: serum, 25 mg/kg i.p. twice a week, 2 weeks.
Setting [12] is: serum, 25 mg/kg i.p. twice a week, 4 weeks.
Where [13] appears, read: serum, 25 mg/kg i.p. twice a week, 6 weeks.
The mark [14] stands for this setting: serum, 25 mg/kg i.p. twice a week, 8 weeks.
Where [15] appears, read: serum, 25 mg/kg i.p. twice a week, Start.

In the oligonucleotide strings, read from the 5' end, every base follows the letter of its sugar. An asterisk marks phosphorothioate; unmarked linkages are phosphodiester. Other units and linkages are bracketed, terminal groups are in braces. A string of capitals states the bases alone. e = 2'-O-(2-methoxyethyl) (MOE); [5mC] = 5-methylcytosine; d = 2'-deoxy (DNA)

As to “ISIS 281625: SEQ ID NO: 224, 2′-MOE gapmer targeted to human apolipoprotein B (antisense eA*eG*eG*eT*eT*dA*d[5mC]*d[5mC]*dA*dG*d[5mC]*d[5mC]*dA*d[5mC]*dA*eT*eG*e[5mC]*eA*eG)”, the “reduction of serum human apolipoprotein B protein (ELISA)” value in data set [1] (2 weeks) is reported as 31%; in data set [1] (4 weeks), 26%; in data set [1] (6 weeks) it was 11%; in data set [1] (8 weeks) it was 26%.
Consider “GTCCCTGAAGATGTCAATGC (2'-MOE gapmer, further chemistry not given here) [ISIS 147764]”, for which, in the data set on apolipoprotein B mRNA (male and female LDLr(-/-) mice, 10, 25 or 50 mg/kg i.p. twice a week), the mRNA levels result is “able to lower cholesterol, triglycerides, and mRNA levels in a dose-dependent manner”. Moreover, the “apolipoprotein B protein in serum (immunoblot)” value in data set [2] was “markedly reduced within 48 hours”. The LDL-cholesterol result in data set [3] (10 or 25 mg/kg, first 4 weeks of treatment) is recorded as “lowered”. The “liver tissue triglyceride content vs saline treated animals” value in data set [4] (6, 12 and 20 weeks) is “no significant differences”. For the same substance, in data set [4] (12 and 20 weeks), the “steatosis vs saline control animals (histology)” value is listed as “reduced”.
On to “ISIS 301012: SEQ ID NO: 247, antisense oligonucleotide targeted to human apolipoprotein B (antisense GCCTCAGTCTGCTTCGCACC; chemistry not given here)”, for which the “reduction of serum human apolipoprotein B protein (ELISA)” value in data set [1] (2 weeks) turned out to be 70%; in data set [1] (4 weeks) it was 87%; in data set [1] (6 weeks), 81%; in data set [1] (8 weeks), 41%. Besides, the HDL-cholesterol in data set [3] (setting [6]) was 69 mg/dL; in data set [3] (setting [7]), 78 mg/dL; in data set [3] (setting [8]), 72 mg/dL; in data set [3] (setting [9]), 79 mg/dL; in data set [3] (setting [10]), 70 mg/dL; in data set [3] (setting [11]), 73 mg/dL. The HDL-cholesterol in data set [3] (setting [12]) is given as 76 mg/dL; in data set [3] (setting [13]) it was 80 mg/dL; in data set [3] (setting [14]), 91 mg/dL; in data set [3] (setting [15]), 64 mg/dL. For the same substance, the LDL-cholesterol in data set [3] (setting [6]) is recorded as 20 mg/dL; in data set [3] (setting [7]), 23 mg/dL; in data set [3] (setting [8]), 37 mg/dL; in data set [3] (setting [9]) it was 33 mg/dL; in data set [3] (setting [10]) it was 35 mg/dL; in data set [3] (setting [11]) it was 19 mg/dL. The LDL-cholesterol in data set [3] (setting [12]) was found to be 19 mg/dL; in data set [3] (setting [13]), 37 mg/dL; in data set [3] (setting [14]), 44 mg/dL; in data set [3] (setting [15]) it was 33 mg/dL. Besides, the Total cholesterol in data set [3] (setting [6]) was 97 mg/dL; in data set [3] (setting [7]), 111 mg/dL; in data set [3] (setting [8]), 120 mg/dL; in data set [3] (setting [9]), 122 mg/dL; in data set [3] (setting [10]), 115 mg/dL; in data set [3] (setting [11]), 101 mg/dL. Besides, the Total cholesterol in data set [3] (setting [12]) amounted to 107 mg/dL; in data set [3] (setting [13]) it was 124 mg/dL; in data set [3] (setting [14]), 147 mg/dL; in data set [3] (setting [15]), 107 mg/dL.
On to “147764 (eG*eT*e[5mC]*e[5mC]*e[5mC]*dT*dG*dA*dA*dG*dA*dT*dG*dT*d[5mC]*eA*eA*eT*eG*e[5mC]) [compound 147764]”, for which the “apolipoprotein B mRNA % control” value is listed as 64.2 % control in the data set on apolipoprotein B mRNA (female LDLr(-/-) mice, 10 mg/kg i.p. twice a week); 41.3 % control in the data set on apolipoprotein B mRNA (female LDLr(-/-) mice, 25 mg/kg i.p. twice a week); 18.5 % control in the data set on apolipoprotein B mRNA (female LDLr(-/-) mice, 50 mg/kg i.p. twice a week); 61.7 % control in the data set on apolipoprotein B mRNA (male LDLr(-/-) mice, 10 mg/kg i.p. twice a week); 30.7 % control with apolipoprotein B mRNA (male LDLr(-/-) mice, 25 mg/kg i.p. twice a week); 16.6 % control in the data set on apolipoprotein B mRNA (male LDLr(-/-) mice, 50 mg/kg i.p. twice a week). In addition, the Intact oligonucleotide in data set [5] (high fat fed male C57Bl/6 mice, treatment period 1 week) stood at 121 µg/g; in data set [5] (high fat fed male C57Bl/6 mice, treatment period 2 weeks) it was 194 µg/g; in data set [5] (high fat fed male C57Bl/6 mice, treatment period 4 weeks), 340 µg/g; in data set [5] (high fat fed male C57Bl/6 mice, treatment period 6 weeks) it was 586 µg/g; in data set [5] (high fat fed male C57Bl/6 mice, treatment period 2 days), 85 µg/g; in data set [5] (high fat fed mice, 1 week after cessation of dosing), 215 µg/g. For the same substance, the Intact oligonucleotide came to 168 µg/g in data set [5] (high fat fed mice, 2 weeks after cessation of dosing); 124 µg/g in data set [5] (high fat fed mice, 4 weeks after cessation of dosing); 70 µg/g in data set [5] (high fat fed mice, 6 weeks after cessation of dosing); 43 µg/g in data set [5] (high fat fed mice, 8 weeks after cessation of dosing).
